Results from paper PMC5415848, “Structural basis of molecular recognition of helical histone H3 tail by PHD finger domains” (Biochemical Journal, 2017).
Where a chain is given by its changes, count along the chain named. Where two headings read alike, the source gives them in different places. Residues, ends and D or L forms follow the SMILES beside them. No end group written: not given here.

Assays:
Assay type in all cases: binding
[1] = target: T1, BAZ2A PHD (Homo sapiens, UniProt Q9UIF9); assay: ITC, H3 peptides titrated into BAZ2A PHD (WT); conditions: for effect on binding, in words: compared with H3 10-mer WT or the peptide named in the words
T1 construct: The small PHDs (∼6.5 kDa) of both BAZ2A and BAZ2B; made in house
T1 sequence (Q9UIF9 1676-1726 limits assumed): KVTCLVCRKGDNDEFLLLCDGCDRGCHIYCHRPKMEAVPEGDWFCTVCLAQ
Description: (§1) All calorimetric experiments were performed on a MicroCal iTC200 microcalorimeter (GE Healthcare) at 25°C in a buffer containing 20 mM HEPES at a pH of 8, 150 mM NaCl and 0.5 mM Tris(2-carboxyethyl) phosphine. All ITC experiments were carried out titrating peptide solutions (1.5–3 mM) into protein solutions (80–120 µM) loaded in the calorimeter cell, performing one first injection of 0.4 µl followed by 19 injections of 2 µl. The data were analyzed using the MicroCal™ software package subtracting the data from an independent titration of peptide into buffer to account for heat of dilution, and then fitted using a single-binding site model. Protein concentration was determined by measuring absorbance at 280 nm using the following extinction coefficients: BAZ2A PHD ε280 = 6990 M^−1 cm^−1 and BAZ2B PHD ε280 = 8480 M^−1 cm^−1. Lyophilized peptides were weighted and dissolved in an appropriate volume of buffer to obtain the desired concentration.

[2] = target: T2, BAZ2B PHD (Homo sapiens, UniProt Q9UIF8); assay: ITC, H3 peptides titrated into BAZ2B PHD (WT); conditions: for effect on binding, in words: compared with H3 10-mer WT
T2 construct: The small PHDs (∼6.5 kDa) of both BAZ2A and BAZ2B; made in house
T2 sequence (Q9UIF8 1931-1981 limits assumed): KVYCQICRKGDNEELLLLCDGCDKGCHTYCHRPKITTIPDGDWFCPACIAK
Description: as §1

[3] = target: T3, BAZ2B PHD E1944Q (Homo sapiens, UniProt Q9UIF8, E1944Q); assay: ITC, H3 10-mer into BAZ2B PHD E1944Q mutant; conditions: ITC 25°C, triplicate, mean ± s.e.m.; N fixed to 1 in fit; SEM
T3 construct: Mutations were introduced into BAZ2A/B PHD fingers by polymerase chain reaction (PCR) amplification of the original construct; made in house
T3 sequence (Q9UIF8 1931-1981 E1944Q limits assumed): T2 sequence (Q9UIF8 1931-1981 limits assumed) with E14Q
Description: (§2) Mutations were introduced into BAZ2A/B PHD fingers by polymerase chain reaction (PCR) amplification of the original construct using Phusion DNA Polymerase (Thermo Fisher Scientific) and a specific pair of primers for each mutation (Supplementary Table S4). The PCR amplification product was incubated with Dpn I (New England BioLabs) for 1 h at 37°C to digest the parental DNA strands and then used to transform Escherichia coli DH5α cells. Transformed cells were grown on lysogeny broth (LB) agar plates supplemented with 100 µg/ml ampicillin for 16 h at 37°C. Single colonies were picked to inoculate 5 ml of LB plus 100 µg/ml ampicillin and grown for 16 h at 37°C. […]
(§3) All calorimetric experiments were performed on a MicroCal iTC200 microcalorimeter (GE Healthcare) at 25°C in a buffer containing 20 mM HEPES at a pH of 8, 150 mM NaCl and 0.5 mM Tris(2-carboxyethyl) phosphine. […] The data were analyzed using the MicroCal™ software package subtracting the data from an independent titration of peptide into buffer to account for heat of dilution, and then fitted using a single-binding site model. Protein concentration was determined by measuring absorbance at 280 nm using the following extinction coefficients: BAZ2A PHD ε280 = 6990 M^−1 cm^−1 and BAZ2B PHD ε280 = 8480 M^−1 cm^−1. […]

[4] = target: T4, BAZ2A PHD E1689K (Homo sapiens, UniProt Q9UIF9, E1689K); assay: ITC, H3 10-mer into BAZ2A PHD E1689K mutant; conditions: ITC 25°C, duplicate, mean ± s.e.m.; SEM
T4 construct: Mutations were introduced into BAZ2A/B PHD fingers by polymerase chain reaction (PCR) amplification of the original construct; made in house
T4 sequence (Q9UIF9 1676-1726 E1689K limits assumed): T1 sequence (Q9UIF9 1676-1726 limits assumed) with E14K
Description: as §2, §3

[5] = target: T5, BAZ2A PHD E1689Q (Homo sapiens, UniProt Q9UIF9, E1689Q); assay: ITC, H3 10-mer into BAZ2A PHD E1689Q mutant; conditions: ITC 25°C, triplicate, mean ± s.e.m.; SEM
T5 construct: Mutations were introduced into BAZ2A/B PHD fingers by polymerase chain reaction (PCR) amplification of the original construct; made in house
T5 sequence (Q9UIF9 1676-1726 E1689Q limits assumed): T1 sequence (Q9UIF9 1676-1726 limits assumed) with E14Q
Description: as §2, §3

[6] = target: T6, BAZ2A PHD D1688N/E1689Q (Homo sapiens, UniProt Q9UIF9, D1688N/E1689Q); assay: ITC, H3 10-mer into BAZ2A PHD D1688N/E1689Q double mutant; conditions: ITC 25°C, triplicate, mean ± s.e.m.; N fixed to 1 in fit; SEM
T6 construct: Mutations were introduced into BAZ2A/B PHD fingers by polymerase chain reaction (PCR) amplification of the original construct; made in house
T6 sequence (Q9UIF9 1676-1726 D1688N/E1689Q limits assumed): T1 sequence (Q9UIF9 1676-1726 limits assumed) with D13N, E14Q
Description: as §2, §3

[7] = target: T7, BAZ2B PHD E1944K (Homo sapiens, UniProt Q9UIF8, E1944K); assay: ITC, H3 10-mer into BAZ2B PHD E1944K mutant; conditions: ITC 25°C
T7 construct: Mutations were introduced into BAZ2A/B PHD fingers by polymerase chain reaction (PCR) amplification of the original construct; made in house
T7 sequence (Q9UIF8 1931-1981 E1944K limits assumed): T2 sequence (Q9UIF8 1931-1981 limits assumed) with E14K
Description: as §2, §3

[8] = ITC, 25°C, 20 mM HEPES pH 8, 150 mM NaCl, 0.5 mM TCEP, peptide 1.5–3 mM into protein 80–120 µM, single-site fit, error from fit (Table 2), read-out: KD
[9] = KD, ITC, 25°C, 20 mM HEPES pH 8, 150 mM NaCl, 0.5 mM TCEP, peptide 1.5–3 mM into protein 80–120 µM, single-site fit, error from fit (Table 2)

C[C@H](N)C(=O)N[C@@H](CCCNC(=N)N)C(=O)N[C@H](C(=O)N[C@@H](CCCCN)C(N)=O)[C@@H](C)O [ARTK] (H-ARTK-NH2) gave a Kd [1, 8] of 100 ± 4 µM.
Work on ARTGGTARKS-NH2 [ARTGGTARKS] yielded a Kd [1, 8] of 143 ± 7 µM and a Kd [2, 8] of 166 ± 8 µM.
For AATKQTARKS-NH2 [AATKQTARKS], the Kd [1, 8] was over 1000 µM, the “effect on binding, in words” value ([1]; ITC) was “abolished binding” and the Kd [2, 8] was over 1000 µM. For the same molecule, the “effect on binding, in words” value ([2]; ITC) was “abolished binding”.
With C[C@H](N)C(=O)N[C@@H](CCCNC(=N)N)C(=O)N[C@H](C(=O)N[C@@H](CCCCN)C(=O)N[C@@H](C)C(=O)N[C@H](C(=O)N[C@@H](C)C(=O)N[C@@H](CCCNC(=N)N)C(=O)N[C@@H](CCCCN)C(=O)N[C@@H](CO)C(N)=O)[C@@H](C)O)[C@@H](C)O [ARTKATARKS] the Kd [1, 8] was 9.3 ± 0.2 µM and the Kd [2, 8] was 7 ± 0.2 µM.
In the case of C[C@H](N)C(=O)N[C@@H](CCCNC(=N)N)C(=O)N[C@H](C(=O)N[C@@H](CCCCN)C(=O)N[C@@H](CCC(N)=O)C(=O)N[C@H](C(=O)N[C@@H](C)C(=O)N[C@@H](CCCNC(=N)N)C(=O)N[C@@H](CCCCN)C(=O)N[C@@H](CO)C(N)=O)[C@@H](C)O)[C@@H](C)O [ARTKQTARKS], the Kd [3] is reported as 660 ± 60 µM, the Kd [4] is reported as 116 ± 6 µM and the Kd ([1]; KD, BAZ2A PHD wt, ITC 25°C, triplicate, mean ± s.e.m. (Table 3), SEM) is reported as 48 ± 2 µM. For the same molecule, the Kd [1, 9] was 51 ± 2 µM, the Kd [5] was 83 ± 7 µM and the Kd [6] was 810 ± 50 µM. For the same molecule, the KD [7] was “completely abrogated binding”, the Kd [7] was over 1000 µM and the Kd ([2]; KD, BAZ2B PHD wt, ITC 25°C, triplicate, mean ± s.e.m. (Table 3), SEM) was 47 ± 2 µM. The Kd [2, 9] was 40 ± 0.5 µM.
For C[C@H](N)C(=O)N[C@@H](CCCNC(=N)N)C(=O)N[C@H](C(=O)N[C@@H](C)C(N)=O)[C@@H](C)O [ARTA] (H-ARTA-NH2), the Kd [1, 8] was 56 ± 2 µM.
C[C@H](N)C(=O)N[C@@H](CCCNC(=N)N)C(=O)N[C@H](C(=O)N[C@@H](CCCCN)C(=O)N[C@@H](CCC(N)=O)C(N)=O)[C@@H](C)O [ARTKQ] showed a Kd [1, 8] of 210 ± 30 µM and a Kd [2, 8] of 190 ± 25 µM.
For ARAKQTARKS-NH2 [ARAKQTARKS], the KD ([1]; ITC, 25°C, 20 mM HEPES pH 8, 150 mM NaCl, 0.5 mM TCEP, peptide 1.5–3 mM into protein 80–120 µM, single-site fit, error from fit (Table 2)) was “No binding”, the “effect on binding, in words” value ([1]; ITC) was “abolished binding” and the Kd [2, 8] was over 5000 µM. For the same molecule, the “effect on binding, in words” value ([2]; ITC) was “abolished binding”.
In the case of C[C@H](N)C(=O)N[C@@H](CCCNC(=N)N)C(=O)N[C@H](C(=O)N[C@@H](C)C(=O)N[C@@H](CCC(N)=O)C(=O)N[C@H](C(=O)N[C@@H](C)C(=O)N[C@@H](CCCNC(=N)N)C(=O)N[C@@H](CCCCN)C(=O)N[C@@H](CO)C(N)=O)[C@@H](C)O)[C@@H](C)O [ARTAQTARKS], the Kd [1, 8] is reported as 42 ± 2 µM and the Kd [2, 8] is reported as 8.5 ± 0.2 µM.
Work on C[C@H](N)C(=O)N[C@@H](CCCNC(=N)N)C(=O)N[C@H](C(=O)N[C@@H](CCCCN)C(=O)N[C@@H](CCC(N)=O)C(=O)N[C@@H](C)C(=O)N[C@@H](C)C(=O)N[C@@H](CCCNC(=N)N)C(=O)N[C@@H](CCCCN)C(=O)N[C@@H](CO)C(N)=O)[C@@H](C)O [ARTKQAARKS] yielded a Kd [1, 8] of 55 ± 2 µM and a Kd [2, 8] of 44.6 ± 0.8 µM.
ARTAATARKS-NH2 [ARTAATARKS] was tested, and the Kd [1, 8] was 12.1 ± 0.3 µM and the Kd [2, 8] was 2.6 ± 0.1 µM.
